This passage reports IC50 results from patent US8288382B2, “Diaminothiazoles useful as Axl inhibitors” (Rigel Pharmaceuticals, Inc., priority 2006, dated 2012).

The structures appear in SMILES notation.

This test addresses T1, Axl (Homo sapiens, UniProt P30530).
T1 construct: endogenous in cells; host or cells: HeLa cells
T1 sequence (P30530 26-894): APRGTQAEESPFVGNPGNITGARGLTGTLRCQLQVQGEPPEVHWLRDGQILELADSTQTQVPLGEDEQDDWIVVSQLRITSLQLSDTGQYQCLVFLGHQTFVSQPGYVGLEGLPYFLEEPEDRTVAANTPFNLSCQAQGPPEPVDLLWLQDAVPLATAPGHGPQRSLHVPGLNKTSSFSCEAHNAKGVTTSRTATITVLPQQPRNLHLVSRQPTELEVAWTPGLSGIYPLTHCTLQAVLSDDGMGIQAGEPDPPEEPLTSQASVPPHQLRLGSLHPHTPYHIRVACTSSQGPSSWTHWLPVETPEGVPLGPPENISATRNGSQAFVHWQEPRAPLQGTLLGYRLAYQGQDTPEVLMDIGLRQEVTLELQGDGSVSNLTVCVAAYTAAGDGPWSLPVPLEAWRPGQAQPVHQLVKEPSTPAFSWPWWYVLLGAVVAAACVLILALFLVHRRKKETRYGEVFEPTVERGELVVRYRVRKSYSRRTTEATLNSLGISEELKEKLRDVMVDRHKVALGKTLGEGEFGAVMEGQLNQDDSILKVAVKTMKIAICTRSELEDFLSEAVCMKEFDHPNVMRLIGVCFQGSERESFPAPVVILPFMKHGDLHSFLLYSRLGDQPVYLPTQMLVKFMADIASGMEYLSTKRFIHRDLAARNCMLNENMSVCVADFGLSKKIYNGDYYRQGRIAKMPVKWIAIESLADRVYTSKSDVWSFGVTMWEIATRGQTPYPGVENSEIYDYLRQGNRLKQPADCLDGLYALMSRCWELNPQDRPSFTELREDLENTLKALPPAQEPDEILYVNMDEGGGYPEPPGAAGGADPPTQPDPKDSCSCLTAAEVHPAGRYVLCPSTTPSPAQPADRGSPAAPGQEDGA
Put plainly: Phospho-Akt In-Cell Western Assay (inhibition of Axl activity). The format is cell-based. The note with it: Hela cells, stimulated by Axl-antibody cross-linking, phospho-Akt chemiluminescence normalized to relative cell number. On the procedure: The compounds of the invention were tested in the following assay for their ability to inhibit Axl activity.
Phospho-Akt In-Cell Western Assay
• Cell culture plate: 96 well assay plate (Corning 3610), white, clear bottom, tissue-culture treated. • Cells: Hela cells. • Starvation medium: For Axl stimulation: 0.5% FCS (fetal calf serum) in DMEM, plus Axl/Fc (extracellular domain of AXL fused to imunoglobulin Fc region) (R&D, 154-AL) 500 ng/mL. • For EGF (epidermal growth factor) stimulation: 0.5% FCS in DMEM (Dulbecco's modified Eagles medium). • Poly-L-Lysine 0.01% solution (the working solution): 10 μg/ml, dilute In PBS (phosphate buffered saline). • Axl antibody cross-linking: • 1st: Mouse anti-Axl (R&D, MAB154). • 2nd: Biotin-SP-conjugated AffiniPure goat anti-mouse IgG (H+L) (Jackson ImmunoResearch #115-065-003). • Fixing buffer: 4% formaldehyde in PBS. • Wash buffer: 0.1% TritonX-100 in PBS. • Quenching buffer: 3% H2O2, 0.1% Azide in wash buffer, Azide and hydrogen peroxide (H2O2) are added fresh. • Blocking buffer: 5% BSA in TBST (tris buffered saline plus 0.1% Tween 20). • Primary antibody: Rabbit anti-human Phospho-Akt antibody (Cell Signaling 9271): 1×250 diluted in blocking buffer. • Secondary antibody: HRP (horse radish peroxidase)-conjugated Goat anti-Rabbit secondary, stock solution: Jackson ImmunoResearch (Goat anti-Rabbit HRP, #111-035-144) 1:1 diluted in glycerol, store at −20° C. The working solution: 1×2000 dilution of stock in blocking buffer. • Chemiluminescent working solution (Pierce, 37030): SuperSignal ELISA (enzyme linked immunosorbant assay) Pico Chemiluminescent substrate. • Crystal Violet solution: Stock: 2.5% Crystal violet in methanol, filtered and kept at ambient temperature. The working solution: dilute the stock 1:20 with PBS immediately before use. • 10% SDS: working solution: 5% SDS (sodium dodecylsulfate), diluted in PBS Methods: Day 1:
A 96 well TC (tissue culture treated) plate was coated with 10 μg/mL poly-L-Lysine at 37° C. for 30 min, washed twice with PBS, and air-dried for 5 minutes before cells were added. Hela cells were seeded at 10,000 cells/well and the cells were starved in 100 μL starvation medium containing Axl/Fc for 24 hrs.
The cells were pre-treated with test compounds by adding 100 μL of 2× test compound to the starvation medium on the cells. The cells were incubated at 37° C. for 1 hr before stimulation.
The cells were stimulated by Axl-antibody cross-linking as follows: A 5× 1st/2nd Axl antibody mixture was made (37.5 μg/mL 1st/100 μg/mL 2nd) in starvation medium and nutated at 4° C. with thorough mixing for 1-2 hours for clustering. The resulting mix was warmed to 37° C. 50 μL of 5× Axl 1st/2nd of antibody cluster was added to the cells and the cells were incubated at 37° C. for 5 min.
After 5 minutes stimulation, the plate was flicked to remove medium and the plate was tapped onto paper towels. Formaldehyde (4.0% in PBS, 100 μL) was added to fix the cells and the cells were incubated at ambient temperature for 20 min without shaking.
The cells were washed with a plate washer buffer to remove the formaldehyde solution. The plate was flicked to removed excess wash buffer and tapped onto paper towels. Quenching buffer (100 μL) was added to each well and the cells were incubated at ambient temperature for 20 minutes without shaking.
The cells were washed with a plate washer buffer to remove the quenching buffer. Blocking buffer (100 μL) was added and the cells were incubated at ambient temperature for at least an hour with gentle shaking.
The cells were washed with a plate washer buffer and diluted primary antibody (50 μL) was added to each well (blocking buffer was added to the negative control wells instead). The plates were incubated overnight at 4° C. with gentle shaking.
The wash buffer was removed, diluted secondary antibody (100 μL) was added, and the cells were incubated at ambient temperature for 1 hour with gentle shaking. […]
As for `COc1ccc(Nc2nc(N)c(-c3ccccn3)s2)cc1` [Compound 2, N^2-(4-methoxyphenyl)-5-(pyridin-2-yl)thiazole-2,4-diamine], the IC50 (commonly the concentration that gives 50% inhibition) was > 20 µM. The same measure for `Nc1nc(Nc2ccc(OCCN3CCCC3)cc2)sc1-c1ncnc2ccccc12` [Compound 5, N^2-(4-(2-(pyrrolidin-1-yl)ethoxy)phenyl)-5-(quinazolin-4-yl)thiazole-2,4-diamine]: 1 to 10 µM. The same measure for `Nc1nc(Nc2ccc(OCCN3CCCC3)cc2)sc1-c1nc2ccccc2s1` [Compound 9, 5-(benzo[d]thiazol-2-yl)-N^2-(4-(2-(pyrrolidin-1-yl)ethoxy)phenyl)thiazole-2,4-diamine]: 1 to 10 µM; for `Nc1nc(Nc2ccc(N3CCOCC3)cc2)sc1-c1nccc2ccccc12` [Compound 7, 5-(isoquinolin-1-yl)-N^2-(4-morpholinophenyl)thiazole-2,4-diamine]: 10 to 20 µM; for `COc1cc2ncnc(-c3sc(Nc4ccc(N5CCOCC5)cc4)nc3N)c2cc1OC` [Compound 10, 5-(6,7-dimethoxyquinazolin-4-yl)-N^2-(4-morpholinophenyl)thiazole-2,4-diamine]: 1 to 10 µM. The same measure for `Nc1nc(Nc2ccc(OCCN3CCCC3)cc2)sc1-c1nccc2ccccc12` [Compound 8, 5-(isoquinolin-1-yl)-N^2-(4-(2-(pyrrolidin-1-yl)ethoxy)phenyl)thiazole-2,4-diamine]: > 20 µM; for `COc1cc(Nc2nc(N)c(-c3ncnc4ccccc34)s2)cc(OC)c1OC` [Compound 6, 5-(quinazolin-4-yl)-N^2-(3,4,5-trimethoxyphenyl)thiazole-2,4-diamine]: > 20 µM. Regarding `COc1cc2ncnc(-c3sc(Nc4ccc(OCCN5CCCC5)cc4)nc3N)c2cc1OC` [Compound 1, 5-(6,7-dimethoxyquinazolin-4-yl)-N^2-(4-(2-(pyrrolidin-1-yl)ethoxy)phenyl)thiazole-2,4-diamine], the IC50 was in the range of 1 to 10 µM. The same measure for `COc1cc2ncnc(-c3sc(Nc4ccc(OCCN5CCCC5)c(Cl)c4)nc3N)c2cc1OC` [Compound 14, N^2-(3-chloro-4-(2-(pyrrolidin-1-yl)ethoxy)phenyl)-5-(6,7-dimethoxyquinazolin-4-yl)thiazole-2,4-diamine]: 1 to 10 µM.

`COc1cc(Nc2nc(N)c(-c3cnc4ccccc4n3)s2)cc(OC)c1OC` [Compound 3, 5-(quinoxalin-2-yl)-N^2-(3,4,5-trimethoxyphenyl)thiazole-2,4-diamine] yielded a half-maximal inhibitory concentration (IC50) of 1 to 10 µM. The same measure for `COc1cc2ncnc(-c3sc(Nc4ccc(N5CCN(C6CC7CCC6C7)CC5)cc4)nc3N)c2cc1OC` (centres unmarked) [Compound 13, N^2-(4-(4-(bicyclo[2.2.1]heptan-2-yl)piperazin-1-yl)phenyl)-5-(6,7-dimethoxyquinazolin-4-yl)thiazole-2,4-diamine]: > 20 µM; for `COc1cc2ncnc(-c3sc(Nc4ccc(N5CCN(C)CC5)cc4)nc3N)c2cc1OC` [Compound 11, 5-(6,7-dimethoxyquinazolin-4-yl)-N^2-(4-(4-methylpiperazin-1-yl)phenyl)thiazole-2,4-diamine]: 1 to 10 µM.

The molecule `Nc1nc(Nc2ccc(N3CCN(C4CC5CCC4C5)CC3)cc2)sc1-c1ncnc2ccsc12` (centres unmarked) [Compound 12, N^2-(4-(4-(bicyclo[2.2.1]heptan-2-yl)piperazin-1-yl)phenyl)-5-(thieno[3,2-d]pyrimidin-4-yl)thiazole-2,4-diamine] yielded an IC50 of 1 to 10 µM. The same measure for `Nc1nc(Nc2ccc(OCCN3CCCC3)cc2)sc1-c1cnc2ccccc2n1` [Compound 4, N^2-(4-(2-(pyrrolidin-1-yl)ethoxy)phenyl)-5-(quinoxalin-2-yl)thiazole-2,4-diamine]: 1 to 10 µM.
